Assay results published in ChEMBL document CHEMBL2440005, “Discovery and structure-activity relationships of 6-(benzoylamino)benzoxaboroles as orally active anti-inflammatory agents” (Bioorg Med Chem Lett, 2013).
Active and inactive are the calls of the source. The calls are words filed in the database; no cut-off is given here.

Columns and labels:
[1] = molecular target: Protein kinase C alpha type (Homo sapiens) (UniProt P17252); assay: Inhibition of PKCalpha (unknown origin) at 30 uM
[2] = molecular target: Prostaglandin G/H synthase 1 (Homo sapiens) (UniProt P23219); assay: Inhibition of COX1 (unknown origin) up to 25 uM
Sequence of Prostaglandin G/H synthase 1 (Homo sapiens) (P23219 whole entry): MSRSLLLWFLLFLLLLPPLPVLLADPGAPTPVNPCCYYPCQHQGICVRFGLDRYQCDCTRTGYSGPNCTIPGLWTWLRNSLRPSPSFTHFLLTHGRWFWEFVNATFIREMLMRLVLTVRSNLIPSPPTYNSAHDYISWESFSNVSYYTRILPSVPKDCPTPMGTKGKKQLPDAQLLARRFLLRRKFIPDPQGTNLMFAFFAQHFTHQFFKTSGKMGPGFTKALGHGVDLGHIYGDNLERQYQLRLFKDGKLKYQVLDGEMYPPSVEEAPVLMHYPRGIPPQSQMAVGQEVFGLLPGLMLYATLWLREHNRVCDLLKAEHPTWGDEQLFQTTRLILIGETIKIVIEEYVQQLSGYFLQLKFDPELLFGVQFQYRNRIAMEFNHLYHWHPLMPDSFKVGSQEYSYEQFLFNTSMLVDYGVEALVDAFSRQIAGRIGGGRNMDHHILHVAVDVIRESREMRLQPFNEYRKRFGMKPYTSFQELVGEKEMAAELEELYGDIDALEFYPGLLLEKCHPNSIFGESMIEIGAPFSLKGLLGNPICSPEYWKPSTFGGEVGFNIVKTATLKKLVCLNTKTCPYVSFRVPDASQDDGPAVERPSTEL

[3] = species: Homo sapiens; assay: Inhibition of PKA (unknown origin) at 30 uM
[4] = molecular target: Tyrosine-protein kinase JAK1 (Homo sapiens) (UniProt P23458); assay: Inhibition of JAK1 (unknown origin) at 30 uM
Sequence of Tyrosine-protein kinase JAK1 (Homo sapiens) (P23458 whole entry, canonical isoform): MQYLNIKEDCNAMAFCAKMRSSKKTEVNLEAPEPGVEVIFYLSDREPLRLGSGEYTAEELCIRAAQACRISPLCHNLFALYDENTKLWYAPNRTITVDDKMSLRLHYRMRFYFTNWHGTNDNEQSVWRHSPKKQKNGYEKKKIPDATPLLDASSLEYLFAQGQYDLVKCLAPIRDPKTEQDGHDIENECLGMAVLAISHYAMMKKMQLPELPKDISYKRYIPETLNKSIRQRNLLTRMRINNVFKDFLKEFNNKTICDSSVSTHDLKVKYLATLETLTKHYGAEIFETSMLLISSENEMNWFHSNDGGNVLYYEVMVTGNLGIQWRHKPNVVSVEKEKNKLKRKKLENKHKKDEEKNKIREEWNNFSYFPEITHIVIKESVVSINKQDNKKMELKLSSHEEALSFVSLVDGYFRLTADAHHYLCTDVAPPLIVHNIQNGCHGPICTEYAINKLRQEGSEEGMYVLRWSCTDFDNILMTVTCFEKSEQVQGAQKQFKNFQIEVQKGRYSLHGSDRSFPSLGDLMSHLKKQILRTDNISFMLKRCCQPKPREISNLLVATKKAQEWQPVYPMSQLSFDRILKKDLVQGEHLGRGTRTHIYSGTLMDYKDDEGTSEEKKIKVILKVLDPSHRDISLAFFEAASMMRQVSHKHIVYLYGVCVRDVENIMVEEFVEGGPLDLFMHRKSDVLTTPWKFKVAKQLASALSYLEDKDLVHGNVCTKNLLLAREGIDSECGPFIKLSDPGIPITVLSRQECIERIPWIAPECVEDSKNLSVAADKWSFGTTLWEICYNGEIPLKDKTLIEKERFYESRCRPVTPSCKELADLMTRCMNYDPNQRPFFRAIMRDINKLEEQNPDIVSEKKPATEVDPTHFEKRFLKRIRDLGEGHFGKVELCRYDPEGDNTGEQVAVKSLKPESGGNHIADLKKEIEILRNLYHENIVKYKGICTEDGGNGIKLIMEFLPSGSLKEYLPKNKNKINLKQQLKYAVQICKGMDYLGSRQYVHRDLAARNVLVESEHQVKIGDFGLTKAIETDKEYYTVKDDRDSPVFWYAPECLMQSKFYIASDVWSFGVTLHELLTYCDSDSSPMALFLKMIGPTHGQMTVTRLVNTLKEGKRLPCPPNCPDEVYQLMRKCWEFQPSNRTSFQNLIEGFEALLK

[5] = molecular target: Phosphatidylinositol 4,5-bisphosphate 3-kinase catalytic subunit beta isoform (Homo sapiens) (UniProt P42338); assay: Inhibition of PI3Kbeta (unknown origin) at 30 uM
Sequence of Phosphatidylinositol 4,5-bisphosphate 3-kinase catalytic subunit beta isoform (Homo sapiens) (P42338 whole entry, looked up, canonical isoform): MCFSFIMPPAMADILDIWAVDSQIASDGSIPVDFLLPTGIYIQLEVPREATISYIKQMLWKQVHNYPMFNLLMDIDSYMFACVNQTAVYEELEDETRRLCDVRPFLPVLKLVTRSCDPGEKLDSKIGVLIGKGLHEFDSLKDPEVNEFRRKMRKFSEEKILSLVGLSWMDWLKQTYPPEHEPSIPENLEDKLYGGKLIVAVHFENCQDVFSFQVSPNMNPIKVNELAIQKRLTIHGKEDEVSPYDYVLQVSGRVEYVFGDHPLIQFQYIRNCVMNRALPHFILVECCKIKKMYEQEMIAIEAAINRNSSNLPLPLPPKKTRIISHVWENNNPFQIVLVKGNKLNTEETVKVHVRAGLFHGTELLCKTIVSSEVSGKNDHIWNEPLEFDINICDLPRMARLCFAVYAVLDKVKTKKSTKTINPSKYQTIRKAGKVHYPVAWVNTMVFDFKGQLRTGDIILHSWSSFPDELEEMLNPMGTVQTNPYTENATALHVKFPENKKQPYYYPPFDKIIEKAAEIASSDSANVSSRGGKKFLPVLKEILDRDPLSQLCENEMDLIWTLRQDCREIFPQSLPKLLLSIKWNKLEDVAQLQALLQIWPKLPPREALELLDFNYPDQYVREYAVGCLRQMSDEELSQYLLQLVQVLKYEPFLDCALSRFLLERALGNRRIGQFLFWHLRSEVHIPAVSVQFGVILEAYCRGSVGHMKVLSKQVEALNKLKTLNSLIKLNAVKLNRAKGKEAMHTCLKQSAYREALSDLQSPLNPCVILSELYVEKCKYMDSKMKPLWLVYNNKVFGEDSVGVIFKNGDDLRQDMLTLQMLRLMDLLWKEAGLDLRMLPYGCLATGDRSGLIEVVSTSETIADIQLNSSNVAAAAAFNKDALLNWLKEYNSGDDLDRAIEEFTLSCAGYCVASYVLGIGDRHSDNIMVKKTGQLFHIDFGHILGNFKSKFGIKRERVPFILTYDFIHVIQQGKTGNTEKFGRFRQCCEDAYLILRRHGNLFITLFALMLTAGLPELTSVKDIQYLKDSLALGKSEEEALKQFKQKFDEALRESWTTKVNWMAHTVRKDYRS

[6] = molecular target: Phosphatidylinositol 4,5-bisphosphate 3-kinase catalytic subunit alpha isoform (Homo sapiens) (UniProt P42336); assay: Inhibition of PI3Kalpha (unknown origin) at 30 uM
Sequence of Phosphatidylinositol 4,5-bisphosphate 3-kinase catalytic subunit alpha isoform (Homo sapiens) (P42336 whole entry, canonical isoform): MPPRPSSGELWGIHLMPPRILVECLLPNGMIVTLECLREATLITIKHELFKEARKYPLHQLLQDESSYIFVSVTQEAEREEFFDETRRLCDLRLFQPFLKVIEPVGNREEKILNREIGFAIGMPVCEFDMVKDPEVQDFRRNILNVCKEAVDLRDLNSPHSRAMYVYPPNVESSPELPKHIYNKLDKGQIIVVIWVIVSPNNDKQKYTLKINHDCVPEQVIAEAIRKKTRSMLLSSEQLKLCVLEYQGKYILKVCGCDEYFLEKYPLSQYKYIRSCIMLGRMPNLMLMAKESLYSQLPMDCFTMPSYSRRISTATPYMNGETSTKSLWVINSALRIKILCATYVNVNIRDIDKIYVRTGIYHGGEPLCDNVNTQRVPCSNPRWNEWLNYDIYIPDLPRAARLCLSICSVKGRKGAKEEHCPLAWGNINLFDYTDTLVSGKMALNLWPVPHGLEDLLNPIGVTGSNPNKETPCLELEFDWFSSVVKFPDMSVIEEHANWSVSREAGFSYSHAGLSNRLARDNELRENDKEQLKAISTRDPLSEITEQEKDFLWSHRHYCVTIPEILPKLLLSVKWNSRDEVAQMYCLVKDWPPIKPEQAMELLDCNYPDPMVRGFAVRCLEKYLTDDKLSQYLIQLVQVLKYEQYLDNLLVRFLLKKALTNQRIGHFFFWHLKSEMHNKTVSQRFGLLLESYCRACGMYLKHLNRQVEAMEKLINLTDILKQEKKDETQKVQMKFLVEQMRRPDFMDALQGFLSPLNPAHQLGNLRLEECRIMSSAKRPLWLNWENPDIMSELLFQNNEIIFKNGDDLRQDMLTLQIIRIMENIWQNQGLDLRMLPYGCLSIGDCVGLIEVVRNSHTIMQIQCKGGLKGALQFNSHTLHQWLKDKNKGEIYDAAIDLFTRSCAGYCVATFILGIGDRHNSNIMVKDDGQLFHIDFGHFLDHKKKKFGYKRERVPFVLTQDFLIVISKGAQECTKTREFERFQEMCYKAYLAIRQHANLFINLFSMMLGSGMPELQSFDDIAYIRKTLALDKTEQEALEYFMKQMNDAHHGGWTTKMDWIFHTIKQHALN

[7] = molecular target: Inhibitor of nuclear factor kappa-B kinase subunit epsilon (Homo sapiens) (UniProt Q14164); assay: Inhibition of IKKepsilon (unknown origin) at 30 uM
Sequence of Inhibitor of nuclear factor kappa-B kinase subunit epsilon (Homo sapiens) (Q14164 whole entry): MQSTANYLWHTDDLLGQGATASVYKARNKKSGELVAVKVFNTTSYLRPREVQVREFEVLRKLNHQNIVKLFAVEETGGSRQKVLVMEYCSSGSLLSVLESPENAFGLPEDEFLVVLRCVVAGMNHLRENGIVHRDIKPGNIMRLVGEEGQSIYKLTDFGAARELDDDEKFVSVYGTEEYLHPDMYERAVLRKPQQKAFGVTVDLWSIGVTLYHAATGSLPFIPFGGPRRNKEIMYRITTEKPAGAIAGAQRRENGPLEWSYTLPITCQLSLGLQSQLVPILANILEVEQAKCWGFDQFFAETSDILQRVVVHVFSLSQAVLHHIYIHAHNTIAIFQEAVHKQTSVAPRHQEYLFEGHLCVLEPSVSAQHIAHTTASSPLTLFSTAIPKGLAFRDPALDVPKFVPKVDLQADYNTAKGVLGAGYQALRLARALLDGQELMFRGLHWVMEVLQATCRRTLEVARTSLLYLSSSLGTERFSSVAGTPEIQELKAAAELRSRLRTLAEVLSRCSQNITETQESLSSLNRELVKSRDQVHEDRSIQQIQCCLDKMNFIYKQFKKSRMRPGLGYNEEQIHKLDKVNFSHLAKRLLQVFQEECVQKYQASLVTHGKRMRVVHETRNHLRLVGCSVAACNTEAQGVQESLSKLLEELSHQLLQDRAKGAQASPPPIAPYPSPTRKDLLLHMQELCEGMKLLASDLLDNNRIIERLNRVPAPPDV

[8] = molecular target: RAC-alpha serine/threonine-protein kinase (Homo sapiens) (UniProt P31749); assay: Inhibition of AKT1 (unknown origin) at 30 uM
[9] = molecular target: MAP kinase-activated protein kinase 5 (Homo sapiens) (UniProt Q8IW41); assay: Inhibition of MAPKAPK5 (unknown origin) at 30 uM
[10] = molecular target: Mitogen-activated protein kinase 13 (Homo sapiens) (UniProt O15264); assay: Inhibition of p38delta (unknown origin) at 30 uM
[11] = molecular target: Dual specificity mitogen-activated protein kinase kinase 2 (Homo sapiens) (UniProt P36507); assay: Inhibition of MEK2 (unknown origin) at 30 uM
[12] = molecular target: Mitogen-activated protein kinase kinase kinase 8 (Homo sapiens) (UniProt P41279); assay: Inhibition of MAP3K8 (unknown origin) at 30 uM
Sequence of Mitogen-activated protein kinase kinase kinase 8 (Homo sapiens) (P41279 whole entry): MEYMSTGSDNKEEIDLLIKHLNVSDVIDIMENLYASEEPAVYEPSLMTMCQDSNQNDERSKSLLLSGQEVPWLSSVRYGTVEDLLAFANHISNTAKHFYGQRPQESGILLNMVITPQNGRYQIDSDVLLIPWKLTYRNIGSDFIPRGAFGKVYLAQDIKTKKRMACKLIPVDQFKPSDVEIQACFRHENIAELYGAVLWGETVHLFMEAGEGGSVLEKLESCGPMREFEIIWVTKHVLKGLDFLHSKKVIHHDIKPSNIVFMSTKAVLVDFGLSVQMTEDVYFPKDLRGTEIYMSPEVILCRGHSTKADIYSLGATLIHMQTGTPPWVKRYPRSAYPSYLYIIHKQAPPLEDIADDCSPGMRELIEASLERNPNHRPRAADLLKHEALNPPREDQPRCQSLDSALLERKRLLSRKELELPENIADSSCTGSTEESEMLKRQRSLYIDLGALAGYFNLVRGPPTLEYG

[13] = molecular target: Dual specificity mitogen-activated protein kinase kinase 1 (Homo sapiens) (UniProt Q02750); assay: Inhibition of MEK1 (unknown origin) at 30 uM
[14] = molecular target: Serine/threonine-protein kinase TBK1 (Homo sapiens) (UniProt Q9UHD2); assay: Inhibition of TBK1 (unknown origin) at 30 uM
[15] = tested on: Mus musculus; assay: Antiinflammatory activity in mouse assessed as inhibition of LPS-induced IL-6 production at 100 mg/kg, po administered 1 hr prior to LPS challenge measured after 1 hr; assay type: functional, organism-based; design: dose 100 mg/kg
[16] = tested on: Mus musculus; assay: Antiinflammatory activity in mouse assessed as inhibition of LPS-induced TNF-alpha production at 10 mg/kg, po administered 1 hr prior to LPS challenge measured after 1 hr; assay type: functional
[17] = tested on: Mus musculus; assay: Antiinflammatory activity in po dosed mouse assessed as inhibition of LPS-induced TNF-alpha production administered 1 hr prior to LPS challenge measured after 1 hr; assay type: functional, organism-based
[18] = tested on: PBMC; assay: Antiinflammatory activity in human PBMC assessed as inhibition of LPS-induced TNFalpha release incubated for 15 mins prior to LPS-challenge measured after 24 hrs by HTRF assay; assay type: functional, cell-based
[19] = tested on: Mus musculus; assay: Antiinflammatory activity in mouse assessed as inhibition of LPS-induced IL-6 production at 30 mg/kg, po administered 1 hr prior to LPS challenge measured after 1 hr; assay type: functional

- inhibition [1]: 62%
- inhibition [2]: inactive
- inhibition [3]: inactive
- inhibition [4]: inactive
- inhibition [5]: inactive
- inhibition [6]: inactive
- inhibition [7]: inactive
- inhibition [8]: inactive
- inhibition [9]: inactive
- inhibition [10]: inactive
- inhibition [11]: inactive
- inhibition [12]: inactive
- inhibition [13]: inactive
- inhibition [14]: inactive
SMILES: O=C(Nc1ccc2c(c1)B(O)OC2)c1c(C(F)(F)F)ccc(Cl)c1F
- inhibition [15]: Active
- inhibition in vivo at 10 mg/kg [16]: 60%
- inhibition [17]: Dose-dependent effect
- IC50 [18]: 500 nM
- inhibition in vivo at 30 mg/kg [19]: 95%
